A melting point compilation (Tetko et al.; mined from patent text by program, amines drawn as free bases though some values may be those of a salt)

Structure (SMILES)	melting point [°C]
O=[N+]([O-])c1cccc(Nc2nccc(-c3ccccn3)n2)c1	213 to 219
CCc1nc2c(N)nc(C)c(C)c2n1CCOCCNC(=O)NS(=O)(=O)c1ccccc1	201 to 203
CN1C(=S)N(c2ccc(C#N)c(C(F)(F)F)c2)C(=O)C12CCCC2	162 to 163
CCN(CC)CCNC(=O)c1nc(Cl)c(NCCN(CC)CC)nc1OC	112
CSCCN1CSC(=Cc2cc(C(C)(C)C)c(O)c(C(C)(C)C)c2)C1=O	166 to 168
CC(=O)OC1CCC2(C)C(CCC3C4CC5OC6(CC(C)C(C)(C)O6)C(C)(O)C5C4(C)CC(O)C32)C1 (centres undefined)	194 to 195
O=C(c1nc2ccccc2s1)C1CCN(CCc2ccccc2)CC1	108 to 110
COC(=O)NC(C)(C)c1ccc(CBr)cc1	74 to 76
CC(=O)c1ccc2c(c1)C(c1ncccc1C)CC(C)(C)O2 (centres undefined)	87 to 88
O=C(Cc1ccc2c(c1)OCO2)N[C@H]1CC[C@H](CCN2CCN(c3nccc4c3OCC4)CC2)CC1	187
Cc1cc(C)c(C(=O)P(=O)(c2ccccc2)c2ccccc2)c(C)c1Cl	125 to 126
CC(Oc1cc2sc(NC(=O)CCCN3CCCC3)nc2cc1F)c1c(Cl)ccc(F)c1Cl (centres undefined)	153 to 157
Cc1cccc(C=CCC(C(=O)C=Cc2ccc(Cl)cc2)c2ccccc2)c1 (centres undefined)	89 to 93
CCCCCC(=O)NCCCSc1ccncc1	48 to 49
Cc1ccccc1CSc1c(O)cc(-c2ccccc2)oc1=O	176 to 178
CON=CNC(=O)c1ccc(Br)cc1C	119 to 122
COc1ccccc1NC(=O)Nc1ccc(CC(=O)OC(C)(C)C)cc1C	157 to 158
Cc1ncc2ccc(-c3ccc(F)cc3)nc2n1	> 200
CN(Cc1ccc(NC(=O)C2=Cc3cc(-c4ccc(C#N)cc4)ccc3S(=O)(=O)CC2)cc1)C1CCOCC1	233 to 236
O=c1[nH]nc2n1-c1ccc(Cl)cc1C(c1ccccc1F)CC2 (centres undefined)	236 to 238
Cc1ccc(S(=O)(=O)NC(Cc2ccccc2)C(=O)Nc2c(C(C)C)cccc2C(C)C)cc1 (centres undefined)	183 to 184

Structure (SMILES)	melting point [°C]
CS(=O)(=O)c1ccc(-c2cc(C(=O)CCCO)nn2-c2ccc(Br)cc2)cc1	136 to 137
COC(=O)c1ccc(Cl)cc1OS(C)(=O)=O	82.5 to 84.5
COc1ccc(CNc2cc(OC)c(OC)c(OC)c2)cc1	77 to 78
O=c1c(-c2cccc(C(F)(F)F)c2)c[nH]n1-c1cccc(C(F)(F)F)c1	207 to 208
CS(=O)(=O)c1ccc(C2=C(c3ccccc3)C(=O)N(C3CC3)C2)cc1	144 to 146
CC(=Cc1ccc(N(C)C)cc1Cl)[N+](=O)[O-]	93 to 94
COC(=O)c1c(NC(C)=O)sc2c1CCC(C(C)(C)C)C2 (centres undefined)	117 to 118
O=C(c1ccccc1C(c1ccc(O)cc1)c1ccc(O)cc1)N1CCSCC1	259 to 261
Fc1ncnc(Oc2ccccc2)c1F	65 to 66
CCC(=O)OCC(=O)C12OCOC1CC1C3CCC4=CC(=O)C=CC4(C)C3C(O)CC12C (centres undefined)	184 to 185
CN1C(=O)[C@H](N)N=C(C2CCCCC2)c2ccccc21	130 to 133
O=C(c1ccncc1)[N+]1([O-])CCN(C2c3ccc(Cl)cc3OCc3cccnc32)CC1 (centres undefined)	206 to 208
CCn1c(=O)c2[nH]c(C(C)C)nc2n(Cc2ccc3c(c2)OCO3)c1=O	200 to 232
Nc1ccc(C(=O)O)c([N+](=O)[O-])c1	230
COc1ccc2nc3cc(N4CCN(C)CC4)c(=O)cc-3sc2c1	208 to 209
CC(N)Cc1cccc(N)c1 (centres undefined)	78 to 79
COc1ccc(C(=O)NNC(=O)c2occ(-c3ccccc3)c2-c2ccccc2)cc1NC(=O)OC(C)(C)C	137 to 141
CC(C)OC(=O)Nc1ccc(NC(=O)CBr)c([N+](=O)[O-])c1	195 to 197
Cc1c(C(=O)C(C)Br)ccn1S(=O)(=O)c1ccccc1 (centres undefined)	99 to 103
CC(=O)C1=C(O)C(=C(C)Nc2ccccc2)C(=O)OC1=O	184 to 186
N#CC(C(=O)O)=C(c1ccc(F)cc1)c1ccc(F)cc1	180 to 181

Structure (SMILES)	melting point [°C]
CCCCNc1cccc2c1C(=O)c1cccc(NCCCC)c1C2=O	152 to 153
C#CCn1c(-c2ccccc2)nc(C(F)(F)F)c(CC)c1=O	111 to 114
CCOC(=O)c1cc2cccc(NS(=O)(=O)c3ccsc3C(=O)OC)c2[nH]1	173 to 174
COC(=O)[C@H]1C[C@H](NC(=O)Nc2ccc(I)cc2)c2c(Cl)cc(Cl)cc2N1 (relative stereo)	253 to 255
COc1cc(C(=O)OCC2(N(C)C)CCSc3ccccc32)cc(OC)c1OC (centres undefined)	146 to 148
CCCn1nc2c(N)nc3ccccc3c2c1CCCCN1C(C)=NOC12CCCC2	101 to 105
CS(=O)(=O)Nc1ccc2nc(CCl)ccc2c1	160 to 162
COc1ccccc1CNc1ccc2cc(Nc3nnn(C(C)(C)C)n3)ccc2n1	156
O=S(=O)(c1ccc(Br)cc1)N1CCC(CN2CCC(c3ccncc3)CC2)CC1	163 to 164
COc1cc(N)c(Cl)cc1C(=O)NCC1CCN(CCCOc2ccccc2)CC1	132 to 134
COc1ccc(NC(=O)c2cccc(OC)c2N)cc1	168 to 169
NCc1ccc(-c2cnc(N3CCN(C4CC4)CC3)nc2)cc1	150 to 152
CN(CC#N)Cc1nc(-c2cc(C(C)(C)C)c(O)c(C(C)(C)C)c2)cs1	150 to 156
CC(=O)Oc1cccc2c1C(=O)c1c(OC(C)=O)cc(C#N)cc1C2=O	218 to 220
O=C(Nc1ccc(-n2nccn2)c(F)c1)OCc1ccccc1	99.5 to 101
Cn1cccc1-c1ccc(C(F)(F)F)cc1	39 to 40
C=CCN1C(C)(C)CC(=C2CC(C)(C)N(CC=C)C(C)(C)C2)CC1(C)C	147 to 148
C=Cc1c(C)c2c(c(O)c1C/C=C1\CCCC1CC(=O)O)C(=O)OC2 (centres undefined)	141 to 142
ClCc1nccn1Cc1ccccc1	180 to 182

Next, values leading:

melting point [°C]	Structure (SMILES)
164 to 166	OCCCNc1nc(-c2ccc(Cl)c(Cl)c2)nc2ccccc12
158 to 159	COc1ccc(-c2c3ccc(OC)cc3cc3sc4ccccc4c23)cc1
224 to 225	Cc1nc(N)nc(N)c1-c1cccc2ccccc12
56 to 57	CCC(=O)CCC(=O)c1ccc(F)cc1
146	O=[N+]([O-])c1cc(C(F)(F)F)ccc1C(Br)c1cnoc1C1CC1 (centres undefined)
238 to 240	O=[N+]([O-])c1ccc(C=CC=CC=CC=Cc2ccc([N+](=O)[O-])cc2)cc1
120 to 122	COc1ccc(COC/C(=C/c2ccc(C(=O)O)cc2)Cn2ccnc2)cc1
183 to 184	N#Cc1cccc(CC(NC(=O)c2cc3cc(Cl)ccc3[nH]2)C(=O)N2CCSC2)c1 (centres undefined)
71 to 72	COc1ccc(C(=O)Cc2cccnc2)cc1
> 310	Oc1nc2cc(F)c(F)cc2nc1O
146 to 147	BrCc1ccc(-c2onc3ccccc23)cc1
80	CC(=O)c1ccc2c(c1)CN(C(=O)C(F)(F)F)CC2
135 to 136	COc1cc2c(cc1S(=O)(=O)c1cccs1)[C@@H](N1CCCC1=O)[C@H](O)C(C)(C)O2 (relative stereo)
129 to 130	C=CCNC(=O)C1C=C(O)c2cc(Cl)ccc2O1 (centres undefined)
151 to 152	CC(C)(C)OC(=O)N1CCc2onc(O)c2C1
153 to 156	O=S(=O)(CC(O)Cn1ccnc1)c1ccccc1 (centres undefined)
86 to 87	O=C1C2=C(CCCC2)C(Sc2ccccc2)N1c1ccc(Cl)cc1F (centres undefined)
65 to 70	CCCCCCCCc1ccc(C(=O)C(O)c2ccccc2)cc1 (centres undefined)
101 to 103	O=C(OC1CCN(Cc2ccccc2)CC1)c1cccc(I)c1
202	CS(=O)(=O)c1c(CC(=O)O)n(Cc2ccc(Cl)cc2)c2ccc(F)cc12
195 to 196	O=[N+]([O-])c1ccccc1/C=C/c1ccccc1[N+](=O)[O-]
93 to 94	CCOC(=O)c1c(C)[nH]c2ccc(OCC3CO3)cc12 (centres undefined)

melting point [°C]	Structure (SMILES)
112 to 113	CC(=O)Nc1ccc(OC(F)F)c(F)c1
181	NS(=O)(=O)c1ccc(N2CCN(CCC3C=Cc4ccccc43)CC2)cc1 (centres undefined)
195 to 196	Cc1ccc(S(=O)(=O)N(NC=O)c2ccc(NC(=S)Oc3ccccc3)cc2)cc1
108 to 111	O=C1C=C(c2ccc(Cl)c(S(=O)(=O)N3CCCC3)c2)OC1
187 to 188	O=C(NCc1ccccn1)Nc1cc(N2CC(c3cccs3)OC2=O)ccn1 (centres undefined)
166 to 170	CS(=O)(=O)N1CCN(c2ccc(C(=O)CCc3ccc(N)cc3)cc2)CC1
158 to 160	NC(=O)c1ccc(NC2CCCN(Cc3ccccc3)C2)cc1 (centres undefined)
66 to 68	CCCCSCC(=O)c1cc2c(cc1Cl)n(C)c(=O)n2C
228 to 230	COc1ccc2c(=O)cc[nH]c2c1O
160 to 165	CC(CS)C(=O)Nc1cncc(C(=O)O)c1 (centres undefined)
120 to 122	CCc1nc2ncnn2c(N[C@H]2CC[C@@H](C(C)(C)C)CC2)c1Cl
239 to 240	O=c1[nH]cnc2cccc(Br)c12
48 to 50	CCOC(=O)c1cccn2ccnc12
209	O=C(O)c1ccc(OCCCC2CCN(c3ccc(Cl)nn3)CC2)cc1
151 to 153	CCCn1cc(Cc2ccc(C(=O)O)cc2OC)c2cc(C=CCCC(=O)N(C)C)ccc21
111	CCCC(=O)NCC1Cc2cccc3cccc1c23 (centres undefined)
103 to 104	CC(C)(C)OC(=O)NCC(=O)NCC(=O)Oc1ccc(-c2nn(C3CCCC3)c3c(F)cccc23)cc1
> 250	CCn1cc2c(n1)c(=O)[nH]c1ccccc12
212 to 214	Cc1c(C(=O)c2cc(O)c(O)c([N+](=O)[O-])c2)[nH]c2ccccc12
130 to 131	CC(C)(C)c1cc(-c2nn(CCCBr)c(=O)o2)cc(C(C)(C)C)c1O
142 to 143	CC(C)c1ccc(C(=O)C(c2ccccc2)C2CCCC2)c(C(C)C)c1OS(N)(=O)=O (centres undefined)
